Literature values, collected in patent US20180064146A1, “METHOD FOR THE SURFACE DECONTAMINATION OF PACKAGED SOLID FOOD” (priority 2015, published 2018).

What was measured:
Escherichia coli = conditions: for MICs (in liquid form): agar dilution, oil in liquid form; for MIDs (as vapour): oil as vapour
[1] = tested on: strains of Arcobacter butzleri; conditions: vapours; Arcobacter butzleri in cabbage leaf; to an undetectable level

Structure (SMILES)	MICs (in liquid form) (Escherichia coli) [µg/mL]	MIDs (as vapour) (Escherichia coli) [μg/cm^2]	microbial load reduction [1] [log CFU/2 cm^2]
CC(C)=CCCC(C)=CC=O [Citral]	800	12.5	7
C=CC(C)(O)CCC=C(C)C (centres unmarked) [Linalool]	3200	50	7
C=C(C)[C@H]1CC=C(C)CC1 [Limonene]	3200	800	–
